The text below walks through data of patent US20190002436A1, “RESPIRATORY SYNCYTIAL VIRUS INHIBITORS” (MEDIVIR AB, priority 2015, published 2019).

Read-outs that look alike come from different tables or passages of the source.

The subject of this assay is RSV (Long). In words: RSV cytopathic effect (CPE)-based viral replication assay. It is filed as cell-based, respiratory syncytial virus (RSV). The settings on record: read-out: EC50 (nm). The procedure:
Example A: RSV Cytopathic Effect
Compounds of the invention are initially tested in a cytopathic effect (CPE)-based viral replication assay using immortalized cells and a laboratory strain of RSV (Long). This assay evaluates the ability of a compound to inhibit viral replication.
Assay plates are prepared by seeding 2,500 HEp-2 cells (ATCC) per well of a 384-well black clear-bottom plate (Greiner Bio-One) in 20 μL of assay media (defined as DMEM supplemented with 2% heat-inactivated fetal bovine serum and 1% Penicillin/Streptomycin). Assay plates are incubated overnight at 37° C. in an incubator containing 5% CO2. The following day, a 10-point serial dilution of test compound is prepared in DMSO. Compounds are subsequently diluted with assay media and 20 μL of diluted compound (containing 1.5% DMSO) is transferred to an assay plate for evaluation of antiviral activity.
For the CPE assay, cells are infected at a Multiplicity of Infection (MOI) of 0.015 using 20 μL of RSV Long (ATCC) diluted in assay media. The DMSO concentration is constant throughout the assay plate, including the negative and positive controls. The assay plate is incubated for 3 days at 37° C. in an incubator containing 5% CO2. Cell viability is evaluated with the addition of 10 μL of CellTiter-Glo (ProMega). Luminescence is measured using an EnVision plate reader (Perkin Elmer). EC50 values are calculated using the raw data from the CPE assays.
(In general: Damage to the host cells serves as the signal in cytopathic effect assays.)

Where [1] appears, read: human respiratory syncytial virus, HEp-2, 72 h, HEp-2 cells infected with RSV Long at MOI 0.015, 3 days at 37° C., cell viability by CellTiter-Glo luminescence.

Broadly, the EC50 is the concentration giving half of the maximal effect. On to `NCc1ccc2c(CCCCO)c(Cn3c(=O)n(C4CC4)c4ccncc43)ncc2c1` [Example 26, 3-((7-(Aminomethyl)-4-(4-hydroxybutyl)isoquinolin-3-yl)methyl)-1-cyclopropyl-1H-imidazo[4,5-c]pyridin-2(3H)-one], for which the EC50 under setting [1] is 5.9 nM.

For `NCc1ccc2c(CCCCO)c(Cn3c(=O)n(C4CC4)c4ccccc43)ncc2c1` [Example 27], under setting [1], the EC50 turned out to be 17 nM.

Consider `COC(=O)N1CC2(C1)C(=O)N(Cc1ncc3ccccc3c1CCCCO)c1ccccc12` [Example 28b, Methyl 1′-((4-(4-hydroxybutyl)isoquinolin-3-yl)methyl)-2′-oxospiro[azetidine-3,3′-indoline]-1-carboxylate], for which the EC50 under setting [1] is 6.8 nM.

Regarding `O=c1n(Cc2ncc3c(F)cccc3c2CCCCO)c2cnccc2n1C1CC1` [Example 29, 1-Cyclopropyl-3-((8-fluoro-4-(4-hydroxybutyl)isoquinolin-3-yl)methyl)-1H-imidazo[4,5-c]pyridin-2(3H)-one], the EC50 under setting [1] came to 160 nM.

Turning to `COC(=O)N1CCC(n2c(=O)n(Cc3ncc4cccc(F)c4c3CCCCO)c3cnccc32)CC1` [Example 30, Methyl 4-(3-((5-fluoro-4-(4-hydroxybutyl)isoquinolin-3-yl)methyl)-2-oxo-2,3-dihydro-1H-imidazo[4,5-c]pyridin-1-yl)piperidine-1-carboxylate], the EC50 under setting [1] came out at 18 nM.

For `O=c1n(Cc2ncc3cccc(F)c3c2CCCCO)c2cnccc2n1C1CC1` [Example 31, 1-Cyclopropyl-3-((5-fluoro-4-(4-hydroxybutyl)isoquinolin-3-yl)methyl)-1H-imidazo[4,5-c]pyridin-2(3H)-one], the EC50 under setting [1] stood at 140 nM.

Take `N[C@@H]1CCN(c2ccc3c(CCCCO)c(Cn4c(=O)n(C5CC5)c5ccncc54)ncc3c2)C1` [Example 32c, (R)-3-((7-(3-aminopyrrolidin-1-yl)-4-(4-hydroxybutyl)isoquinolin-3-yl)methyl)-1-cyclopropyl-1H-imidazo[4,5-c]pyridin-2(3H)-one]: the EC50 under setting [1] came to 5800 nM.

As for `N[C@H]1CCN(c2ccc3c(CCCCO)c(Cn4c(=O)n(C5CC5)c5ccncc54)ncc3c2)C1` [Example 33, (S)-3-((7-(3-aminopyrrolidin-1-yl)-4-(4-hydroxybutyl)isoquinolin-3-yl)methyl)-1-cyclopropyl-1H-imidazo[4,5-c]pyridin-2(3H)-one], the EC50 under setting [1] is 1300 nM.

As to `O=c1n(Cc2ncc3ccccc3c2CCCCO)c2cnccc2n1C1CN(S(=O)(=O)C2CC2)C1` [Example 34, 1-(1-(cyclopropylsulfonyl)azetidin-3-yl)-3-((4-(4-hydroxybutyl)isoquinolin-3-yl)methyl)-1H-imidazo[4,5-c]pyridin-2(3H)-one], the EC50 under setting [1] was 33 nM.

For `O=C(OC1CC1)N1CCC(n2c(=O)n(Cc3ncc4ccccc4c3CCCCO)c3cnccc32)CC1` [Example 35, cyclopropyl 4-(3-((4-(4-hydroxybutyl)isoquinolin-3-yl)methyl)-2-oxo-2,3-dihydro-1H-imidazo[4,5-c]pyridin-1-yl)piperidine-1-carboxylate], the EC50 under setting [1] was 2.4 nM.

In the case of `CC(C)(C)OC(=O)N1CC2(C1)C(=O)N(Cc1ncc3ccccc3c1CCCCO)c1ccccc12` [Example 36c, tert-butyl 1′-((4-(4-hydroxybutyl)isoquinolin-3-yl)methyl)-2′-oxospiro[azetidine-3,3′-indoline]-1-carboxylate], the EC50 under setting [1] stood at 2.2 nM.

As to `CS(=O)(=O)N1CCC2(CC1)C(=O)N(Cc1ncc3ccccc3c1CCCCO)c1cnccc12` [Example 37c, 1′-((4-(4-Hvdroxybutyl)isoquinolin-3-yl)methyl)-1-(methylsulfonyl)spiro[piperidine-4,3′-pyrrolo[2,3-c]pyridin]-2′(1′H)-one], the EC50 (HEp-2 cells infected with RSV Long at MOI 0.015, 3 days at 37° C., cell viability by CellTiter-Glo luminescence) is 7.2 nM.

Turning to `CNC(=O)N1CC2(C1)C(=O)N(Cc1ncc3ccccc3c1CCCCO)c1ccccc12` [Example 38, 1′-((4-(4-hydroxybutyl)isoquinolin-3-yl)methyl)-N-methyl-2′-oxospiro[azetidine-3,3′-indoline]-1-carboxamide], the concentration for a half-maximal effect (EC50) under setting [1] amounted to 6.4 nM.

Turning to `NC1(C(=O)N2CCC3(CC2)C(=O)N(Cc2ncc4ccccc4c2CCCCO)c2cnccc23)CC1` [Example 39b, 1-(1-Aminocyclopropanecarbonyl)-1′-((4-(4-hydroxybutyl)isoquinolin-3-yl)methyl)spiro[piperidine-4,3′-pyrrolo[2,3-c]pyridin]-2′(1′H)-one], the EC50 under setting [1] was found to be 35 nM.

Take `O=C1N(Cc2ncc3ccccc3c2CCCCO)c2ccccc2C12CNC2` [Example 40, 1′-((4-(4-Hydroxybutyl)isoquinolin-3-yl)methyl)spiro[azetidine-3,3′-indolin]-2′-one]: the EC50 under setting [1] worked out at 110 nM.

`CN1CC2(C1)C(=O)N(Cc1ncc3ccccc3c1CCCCO)c1ccccc12` [Example 41, 1′-((4-(4-Hydroxybutyl)isoquinolin-3-yl)methyl)-1-methylspiro[azetidine-3,3′-indolin]-2′-one]: the EC50 (human respiratory syncytial virus, HEp-2, 72 h) came to 660 nM.

With `CS(=O)(=O)N1CC2(C1)C(=O)N(Cc1ncc3ccccc3c1CCCCO)c1ccccc12` [Example 42, 1′-((4-(4-Hydroxybutyl)isoquinolin-3-yl)methyl)-1-(methylsulfonyl)spiro[azetidine-3,3′-indolin]-2′-one], the EC50 under setting [1] was 4.6 nM.

Turning to `CN1CCN(Cc2ccc3c(CCCCO)c(Cn4c(=O)n(C5CC5)c5ccncc54)ncc3c2)CC1` [Example 43j, 1-Cyclopropyl-3-((4-(4-hydroxybutyl)-7-((4-methylpiperazin-1-yl)methyl)isoquinolin-3-yl)methyl)-1H-imidazo[4,5-c]pyridin-2(3H)-one], the concentration for a half-maximal effect (EC50) under setting [1] was 2500 nM.

In the case of `COC(=O)N1CC2(C1)C(=O)N(Cc1ncc3ccccc3c1-c1ccc(C#N)nc1)c1ccccc12` [Example 44c, Methyl 1′-((4-(6-cyanopyridin-3-yl)isoquinolin-3-yl)methyl)-2′-oxospiro[azetidine-3,3′-indoline]-1-carboxylate], the concentration for a half-maximal effect (EC50) under setting [1] was found to be 2.8 nM.

On to `CS(=O)(=O)N1CC2(C1)C(=O)N(Cc1ncc3ccccc3c1-c1ccc(C#N)nc1)c1ccccc12` [Example 45], for which the EC50 under setting [1] worked out at 3 nM.

Consider `NC1(c2ccc3c(CCCCO)c(Cn4c(=O)n(C5CC5)c5ccncc54)ncc3c2)COC1` [Example 46g, 3-((7-(3-Aminooxetan-3-yl)-4-(4-hydroxybutyl)isoquinolin-3-yl)methyl)-1-cyclopropyl-1H-imidazo[4,5-c]pyridin-2(3H)-one], for which, under setting [1], the EC50 came out at 8600 nM.

Regarding `O=C1N(Cc2ncc3ccccc3c2CCCCO)c2cnccc2C12CC2` [Example 49, 1′-((4-(4-hydroxybutyl)isoquinolin-3-yl)methyl)spiro[cyclopropane-1,3′-pyrrolo[2,3-c]pyridin]-2′(1′H)-one], under setting [1], the EC50 came out at 18 nM.

With `NC1(C(=O)N2CCC3(CC2)C(=O)N(Cc2ncc4ccccc4c2-c2ccc(C(=O)O)nc2)c2cnccc23)CC1` [Example 50b, 5-(3-((1-(1-aminocyclopropanecarbonyl)-2′-oxospiro[piperidine-4,3′-pyrrolo[2,3-c]pyridin]-1′(2′H)-yl)methyl)isoquinolin-4-yl)picolinic acid], under setting [1], the EC50 was determined as 4.3 nM.

Consider `COC(=O)c1ccc(-c2c(CN3C(=O)C4(CCN(C(=O)C5(N)CC5)CC4)c4ccncc43)ncc3ccccc23)cn1` [Example 50c, Methyl 5-(3-((1-(1-aminocyclopropanecarbonyl)-2′-oxospiro[piperidine-4,3′-pyrrolo[2,3-c]pyridin]-1′(2′H)-yl)methyl)isoquinolin-4-yl)picolinate], for which the EC50 under setting [1] turned out to be 17 nM.

With `CC(C)(C)c1ccc(-c2c(Cn3c(=O)n(C4CC4)c4ccncc43)ncc3ccccc23)cc1` [Example 51d, 3-((4-(4-(tert-butyl)phenyl)isoquinolin-3-yl)methyl)-1-cyclopropyl-1H-imidazo[4,5-c]pyridin-2(3H)-one], the EC50 under setting [1] was over 1 nM.

For the compound `CC1(n2c(=O)n(Cc3ncc4ccccc4c3CCCCO)c3cnccc32)CC1` [Example 52b, 3-((4-(4-hydroxybutyl)isoquinolin-3-yl)methyl)-1-(1-methylcyclopropyl)-1H-imidazo[4,5-c]pyridin-2(3H)-one], the EC50 under setting [1] turned out to be 2.6 nM.

With `CC1(S(=O)(=O)N2CCC3(CC2)C(=O)N(Cc2ncc4ccccc4c2CCCCO)c2cnccc23)CC1` [Example 54, 1′-((4-(4-hydroxybutyl)isoquinolin-3-yl)methyl)-1-((1-methylcyclopropyl)sulfonyl)spiro[piperidine-4,3′-pyrrolo[2,3-c]pyridin]-2′(1′H)-one], under setting [1], the EC50 was 6 nM.

On to `NC(=O)N1CC2(C1)C(=O)N(Cc1ncc3ccccc3c1CCCCO)c1ccccc12` [Example 55, 1′-((4-(4-hydroxybutyl)isoquinolin-3-yl)methyl)-2′-oxospiro[azetidine-3,3′-indoline]-1-carboxamide], for which the EC50 under setting [1] is 4.6 nM.

Consider `CC(C)(C)NC(=O)N1CC2(C1)C(=O)N(Cc1ncc3ccccc3c1CCCCO)c1ccccc12` [Example 56, N-(tert-butyl)-1′-((4-(4-hydroxybutyl)isoquinolin-3-yl)methyl)-2′-oxospiro[azetidine-3,3′-indoline]-1-carboxamide], for which the EC50 under setting [1] came to 1.3 nM.
